Experimental data taken from patent publication US20090286790A1, “ORGANIC COMPOUNDS” (priority 2006, published 2009).

Biological target: T1, CETP (Homo sapiens, UniProt P11597)
T1 construct: Human plasma (50 uL), assay buffer (35 uL) and test compound; tissue New Drug Development Research Center, Inc; host or cells: human EDTA plasma from healthy men
T1 sequence (P11597 18-493): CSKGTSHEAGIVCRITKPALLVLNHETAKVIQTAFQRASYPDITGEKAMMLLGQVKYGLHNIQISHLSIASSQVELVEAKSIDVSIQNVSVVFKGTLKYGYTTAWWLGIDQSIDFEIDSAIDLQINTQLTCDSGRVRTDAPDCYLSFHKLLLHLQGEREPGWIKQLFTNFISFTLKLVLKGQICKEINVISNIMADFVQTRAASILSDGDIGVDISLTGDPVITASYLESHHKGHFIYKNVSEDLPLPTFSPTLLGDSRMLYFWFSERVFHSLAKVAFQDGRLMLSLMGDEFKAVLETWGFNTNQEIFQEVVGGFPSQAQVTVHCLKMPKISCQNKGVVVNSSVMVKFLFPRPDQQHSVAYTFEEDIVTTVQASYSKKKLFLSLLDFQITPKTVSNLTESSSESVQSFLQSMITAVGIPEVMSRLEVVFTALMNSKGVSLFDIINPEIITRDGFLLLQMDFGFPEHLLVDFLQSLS
Experiment: In vitro CETP activity assay in human plasma
Format: biochemical
Settings: Table 1 Inhibitory Activity of Compounds
Procedure: The cDNA of human pro-apoAI (NCBI accession number: NM_000039) is cloned from human liver Quick-Clone™ cDNA (Clontech, CA) and inserted to a pET28a vector (Novagen, Germany) for bacterial expression. Expressed protein as a fusion protein with 6×His-tag at N-terminus in BL-21 Gold (DE3) (Strategene, CA) is purified using HiTrap Chelating (GE Healthcare, CT).
Pro-apoAI containing microemulsion as a donor particle is prepared following previous reports (J. Biol. Chem., 280:14918-22). Glyceryl trioleate (62.5 ng, Sigma, Mo.), 3-sn-phosphatidylcholine (583 ng, Wako Pure Chemical Industries, Japan), and cholesteryl BODIPY® FL C12 (250 ng, Invitrogen, CA) are dissolved in 1 mL of chloroform. The solution is evaporated, then residual solvent is removed in vacuum for more than 1 hr. […]
Human EDTA plasma samples from healthy men are purchased from New Drug Development Research Center, Inc. Donor solution is prepared by a dilution of donor microemulsion with assay buffer. […] Fluorescence intensities are measured every 30 min at 37° C. with excitation wave length of 485 nm and emission wavelength of 535 nm. The CETP activity (Fl/min) is defined as the changes of fluorescence intensity from 30 to 90 min.

IC50	Structure (SMILES)
314 nM	CC[C@@H]1C[C@H](N(Cc2cc(C(F)(F)F)cc(C(F)(F)F)c2)c2ncc(Br)cn2)C[C@H](Cc2ccccc2)N1C(=O)[C@H]1CC[C@@H](OC(C)=O)CC1 (relative stereo) [Example 17, acetic acid 4-{2-benzyl-4-[(3,5-bis-trifluoromethyl-benzyl)-(5-bromo-pyrimidin-2-yl)-amino]-6-ethyl-piperidine-1-carbonyl}-cyclohexyl Ester]
357 nM	CC[C@@H]1C[C@H](N(Cc2cc(C(F)(F)F)cc(C(F)(F)F)c2)c2ncc(Br)cn2)C[C@H](Cc2ccccc2)N1C(=O)[C@H]1CC[C@@H](O)CC1 (relative stereo) [Example 18, {2-benzyl-4-[(3,5-bis-trifluoromethyl-benzyl)-(5-bromo-pyrimidin-2-yl)-amino]-6-ethyl-piperidin-1-yl}-(4-hydroxy-cyclohexyl)-methanone]
